For one data set, the target named is CYP 2C9 (Homo sapiens, UniProt P11712). Kind of data set: Cytochrome P450 inhibition, fluorescence detection. The format is in vitro ADME. The conditions noted are these: at 10 μM.
A further data set has as its target T1, hERG potassium channel (Homo sapiens, UniProt Q12809).
T1 construct: expressed in transfected cells; host or cells: CHO
The experiment in a line: hERG inhibition assay (Fluxor potassium ion channel kit, transfected CHO cells). Type of data set: cell-based. The following applies: at 10 μM. Here is the method: The assay was carried out at a CHO cell line transfected with the hERG potassium channel. 72 h before the assay, 2500 cells were seeded on a 384-well black plate (Greiner 781091). The cell line was maintained at 37 °C in a 5% CO2 atmosphere for 24 h and at 30 °C in a 5% CO2 atmosphere for 48 h plus. hERG activity was measured by using the FluxorTM Potassium Ion Chanel Assay Kit (Thermo Fisher F10016). Medium was replaced for 20 μL of loading buffer and the cells were incubated for 60 min at RT, protected from direct light. After incubation, the loading buffer was replaced for the assay buffer and the compounds were incubated for 30 min at RT. 5 μL of a stimulus buffer was added to each well and the fluorescence was read (λex = 490 nm, λem = 525 nm) using an imaging plate reader system (FDSS7000EX, Hamamatsu) every second after the establishment of a baseline line.

The subject of data set [1] is cerulein-induced acute pancreatitis. Kind of data set: In vivo efficacy, cerulein-induced acute pancreatitis murine model. Also noted: species or system C57BL/6 male mice. From the text: Forty-one male C57BL/6 mice (8-week-old; approximately 24 g) were supplied by Envigo (Barcelona, Spain) (Ref 16512). During the experimental procedure, the animals were identified with a permanent marker (tail code numbers). Upon arrival, the animals were housed in groups of 8–9 animals/cage in polysulfone maintenance cages (480 × 265 × 210 mm, with a surface area of 940 cm^2) with wire tops and wood chip bedding. The animals were kept in an environmentally controlled room (ventilation, temperature 22 ± 2 °C, and humidity 35–65%) on a 12 h light/dark cycle. They underwent a period of 7 days of acclimatization between the date of arrival and the start of the procedure. […] The maintenance diet was supplied by Harlan Interfauna Ibérica S.L. (2018 Harlan Teklad Global Diets). Diet was provided to the animals ad libitum, but they were fasted overnight before the first cerulein injection, and food was replaced after the last cerulein injection. Tap water was supplied by CASSA (Servei d’Aigües de Sabadell) ad libitum. The animals were maintained in accordance with the European Directive for the Protection of Vertebrate Animals Used for Experimental and other Scientific Purposes (86/609/EU). Decree 214/1997 of 30th July. Ministry of agriculture, livestock and fishing of the Autonomous Government of Catalonia, Spain. Royal Decree 53/2013 of 1st February (Spain). All the experimental procedures were approved by the Ethical Committee on human and animal experimentation (CEEAH) of Universitat Autònoma de Barcelona (UAB) (procedure number: 4107) and by the Animal Experimentation Commission of the Generalitat de Catalunya (Catalan Government) (DAAM: 10146). The test item was dissolved in vehicle 10% 2-hydroxypropyl-β-cyclodextrin (CAS 128446-35-5) Sigma-Aldrich (Ref 332607). The vehicle was prepared the day before and kept at 4 °C. Pancreatitis induction: Mice (n = 41) were weighed, identified by a distinct number at the base of the tail, and fasted overnight. Cerulein (cerulein and cerulein + 22 groups) (50 μg/kg, prepared in 0.9% NaCl) or vehicle (0.9% NaCl) (control group) were intraperitoneally injected (V = 5 mL/kg) 12 consecutive times, at 1 h intervals (h = 0–11). Food was replaced after the last injection. A satellite experiment was designed where animals (n = 3) were distributed in control, cerulein, and cerulein + 22-treated groups. Pancreatitis was induced by seven injections of cerulein (or vehicle in the control group) at 1 h intervals (h = 0–6). Treatments: the test item was administered intraperitoneally in one injection to 22_03 (0.3 mg/kg) and 22_01 (0.1 mg/kg) groups at 14 h after the first cerulein injection. Animals from the control and cerulein groups received vehicle administration (10% 2-hydroxypropyl-β-cyclodextrin) (V = 10 mL/kg). Extra groups were treated 2 h after the first cerulein injection: 22 (0.3 mg/kg), control, and cerulein groups (10% 2-hydroxypropyl-β-cyclodextrin). Study end: 24 h after the first cerulein injection, animals were weighed and anesthetized with isoflurane. Blood was collected from the vena cava in an Eppendorf containing K2-EDTA and centrifuged at 10,000 rpm for 5 min for plasma collection. Plasma was stored at −80 °C until analysis. The mice were sacrificed by cervical dislocation and the pancreases were dissected and weighed. Pancreases from three animals were frozen in liquid N2 and stored at −80 °C until analysis. Pancreases from five mice were sectioned and one part was placed in 10% formalin and sent to Anapath (Granada, Spain) for histology analysis and the other was immediately placed in RNAse-free eppendorfs, frozen in N2, and stored at −80 °C for gene expression assays.
Pancreatic samples were treated with increasing grade alcohols and two xylol baths and embedded in paraffin. They were subsequently cut using a microtome and processed for staining. […]

Setting [2] is: Cerulein + 22 (0.3 mg/Kg), samples 1-5, score 0 (no changes) to 4 (very serious).

CYP 2C9, sequence (P11712 whole entry): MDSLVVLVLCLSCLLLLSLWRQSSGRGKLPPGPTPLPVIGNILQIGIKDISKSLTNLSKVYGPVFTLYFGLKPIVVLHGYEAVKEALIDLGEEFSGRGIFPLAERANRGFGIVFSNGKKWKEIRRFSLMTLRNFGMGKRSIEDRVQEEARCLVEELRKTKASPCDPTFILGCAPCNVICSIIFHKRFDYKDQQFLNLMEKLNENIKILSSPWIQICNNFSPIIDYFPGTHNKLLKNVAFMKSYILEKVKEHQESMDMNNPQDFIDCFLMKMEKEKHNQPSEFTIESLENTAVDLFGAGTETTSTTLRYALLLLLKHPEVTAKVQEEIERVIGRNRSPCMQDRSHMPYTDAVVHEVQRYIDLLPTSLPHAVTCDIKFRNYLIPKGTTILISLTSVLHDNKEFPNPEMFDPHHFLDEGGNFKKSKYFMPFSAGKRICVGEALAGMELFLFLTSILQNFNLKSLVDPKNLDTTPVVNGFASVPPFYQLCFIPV
T1 sequence (Q12809 whole entry): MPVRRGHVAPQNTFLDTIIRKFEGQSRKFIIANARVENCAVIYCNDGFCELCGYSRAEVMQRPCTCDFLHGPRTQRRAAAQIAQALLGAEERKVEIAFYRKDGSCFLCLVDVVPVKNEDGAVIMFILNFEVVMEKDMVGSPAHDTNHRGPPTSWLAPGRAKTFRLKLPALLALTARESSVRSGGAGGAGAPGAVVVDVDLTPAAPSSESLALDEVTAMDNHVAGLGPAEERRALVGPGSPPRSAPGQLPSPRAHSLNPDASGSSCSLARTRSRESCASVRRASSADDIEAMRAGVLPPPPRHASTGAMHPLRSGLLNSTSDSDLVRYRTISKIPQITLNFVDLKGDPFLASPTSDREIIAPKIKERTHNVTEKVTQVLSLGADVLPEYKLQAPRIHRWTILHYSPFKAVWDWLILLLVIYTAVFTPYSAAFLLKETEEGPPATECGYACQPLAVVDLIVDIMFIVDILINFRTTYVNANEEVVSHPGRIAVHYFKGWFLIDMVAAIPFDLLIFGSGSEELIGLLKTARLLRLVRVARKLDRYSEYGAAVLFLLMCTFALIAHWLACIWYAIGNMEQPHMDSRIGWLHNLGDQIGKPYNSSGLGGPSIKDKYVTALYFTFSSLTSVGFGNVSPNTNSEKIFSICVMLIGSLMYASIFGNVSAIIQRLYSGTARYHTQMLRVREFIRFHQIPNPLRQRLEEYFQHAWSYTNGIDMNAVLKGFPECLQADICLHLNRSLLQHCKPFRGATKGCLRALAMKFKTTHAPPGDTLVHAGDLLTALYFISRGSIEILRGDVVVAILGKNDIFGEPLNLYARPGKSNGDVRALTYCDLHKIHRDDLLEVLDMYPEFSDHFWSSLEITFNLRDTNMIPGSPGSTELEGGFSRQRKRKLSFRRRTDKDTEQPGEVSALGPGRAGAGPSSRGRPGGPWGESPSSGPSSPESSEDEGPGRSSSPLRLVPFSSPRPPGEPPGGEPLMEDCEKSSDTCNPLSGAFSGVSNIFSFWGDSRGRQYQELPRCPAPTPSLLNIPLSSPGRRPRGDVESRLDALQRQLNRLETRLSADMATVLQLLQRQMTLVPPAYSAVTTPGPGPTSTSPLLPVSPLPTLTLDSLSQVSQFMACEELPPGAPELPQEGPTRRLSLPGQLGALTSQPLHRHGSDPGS

On to `CC12CC3CC(NC(=O)N[C@H]4CC[C@H](Oc5ccc(C(=O)O)cc5)CC4)(CC(C1)c1ccccc13)C2` [Compound 20, 4-[((1r,4r)-4-(3-(9-Methyl-5,6,8,9,10,11-Hexahydro-7H-5,9:7,11-dimethanobenzo[9]annulen-7-yl)ureido)cyclohexyl)oxy]benzoic Acid], for which the “CYP 2C9 inhibition” value on CYP 2C9 stood at 17 ± 3%. On hERG potassium channel, this compound yielded a hERG channel inhibition of 4%.
Turning to `O=C(NC12CC3CC(Cl)(CC(C1)c1ccccc13)C2)N[C@H]1CC[C@H](Oc2ccc(C(=O)O)cc2)CC1` [Compound 22, 4-[((1r,4r)-4-(3-(9-Chloro-5,6,8,9,10,11-hexahydro-7H-5,9:7,11-dimethanobenzo[9]annulen-7-yl)ureido)cyclohexyl)oxy]benzoic Acid], the “body weight change at the end of the study” value in data set [1] (22 0.1 mg/kg IP single dose, did not reach statistical significance) is “increased body weight”; in data set [1] (22 0.3 mg/kg IP single dose, p < 0.01 vs Cerulein group), “increased body weight”. In addition, the “histologic score: Hemorrhage” value in data set [1] (Cerulein + 22 (0.1 mg/Kg), samples 1-5, score 0 (no changes) to 4 (very serious)) was found to be 0; in data set [1] (setting [2]) it was 0. The “histologic score: Mononuclear inflammatory cells” value in data set [1] (setting [2]) is reported as 0. In data set [1] (setting [2]), the “histologic score: Necrosis” value worked out at 0. Besides, the “histologic analysis of pancreas, effect on cerulein-induced damage” value in data set [1] (both doses (0.1 and 0.3 mg/kg)) is “ameliorated cerulein-induced effects”; in data set [1] (higher dose (0.3 mg/kg)), “more efficiently reversed the pancreatic damage, edema, and neutrophil infiltration”. Also, the “CYP 2C9 inhibition” value at CYP 2C9 was found to be 31 ± 3%. The hERG channel inhibition at hERG potassium channel was 44%.

The values are drawn from PMC8634379, “From the Design to the In Vivo Evaluation of Benzohomoadamantane-Derived Soluble Epoxide Hydrolase Inhibitors for the Treatment of Acute Pancreatitis” (Journal of Medicinal Chemistry, 2021).
